Converted amounts (≈) assume the structure as drawn. Where two headings read alike, the source gives them in different places.
Key:
[1] = test system: B16 melanocyte cells; test: B16 cell melanogenesis inhibition assay; format: cell-based
[2] = test system: B16 melanocyte cells
Method: Cytotoxicity activities to determine cell viability were obtained as follows. B16 melanocyte cells were plated in a 24 well-plate one day before the actual assay. Fresh DMEM (with phenol red) containing 10% FBS was added to dilute the cells to an appropriate density, 0.025×10^6 cells for a 24 well-plate. 1 ml of the DMEM with 10% FBS was added to each well. […] The well-plate with treated cells were then left in the incubator at 37° C., 5% CO2 for approximately 16 hours overnight. The media was removed and 1 ml of PBS solution was added into each well to wash and remove the colour of the phenol red in the DMEM. Then, 1 ml of fresh PBS was added into each individual well. 15 μl of the prepared Resazurin stock solution was added (8 μg/ml) into each well containing the compounds. The Resazurin stock solution was prepared by adding 800 μg of Resazurin sodium salt in 10 ml of PBS (pH 7.4) to make a concentration of 80 μg/ml, which was further diluted by adding 0.1 ml of the 80 μg/ml solution to 0.9 ml of PBS to make 8 μg/ml of stock solution. The well-plates were incubated at 37° C. for 2 hours. The plate was immediately read, after 2 hours, using a BioTek Synergy HTX multi-mode reader at an emission and excitation wavelength of 600 nm and 528 nm respectively, with a gain of 35. The results were automatically recorded in an excel spreadsheet.

[3] = test system: Pseudomonas aeruginosa; test: Antimicrobial activity, resistance of cream to microbial contamination; format: cell-based; conditions: tested individually at 0.05%
[4] = test system: arm skin of Southeast Asian women; conditions: in vivo
Source text: The cream base used for blending the active ingredients contained the ingredients as follows: Aqua, Butyrospermum parkii, caprylic/capric triglyceride, C12-15 alkyl benzoate, cetearyl isononanoate, cyclomethicone, butylene glycol, hydroxyethyl acrylate, sodium dimethyl taurate copolymer, Aloe barbadensis leaf juice.

[5] = Viscosity measurement of creams; format: physicochemical; conditions: 0.5 wt % in base cream of 25,000 mPa·s
Method: Rheological properties of the creams with different cosmetic compositions were evaluated based on viscosity measurements. The individually tested samples were dissolved in a base cream (control) with a viscosity of 25,000 mPa·s. The cream base used for blending the active ingredients contained the ingredients as follows: Aqua, Butyrospermum parkii, caprylic/capric triglyceride, C12-15 alkyl benzoate, cetearyl isononanoate, cyclomethicone, butylene glycol, hydroxyethyl acrylate, sodium dimethyl taurate copolymer, Aloe barbadensis leaf juice. The cream base was white in colour, with a pH ranges between 4.5 and 5.5.

[6] = test system: arm skin of Southeast Asian women; test: Subject self-assessment questionnaire and preference in the skin lightening study (Example 1); format: in vivo, human; conditions: by day 14 of the trial
Source text: Table V illustrates the ranking of the various compositions from best to worst based on user satisfaction measurements. The questionnaire was formulated to include the questions such as: 1) what were your first impressions after application of the various compositions? 2) How quickly do you expect to see a lightening effect? 3) Are you satisfied with the quality of skin lightening achieved? 4) How many days after the first application of the various compositions did you observe a lightening effect? 5) are you satisfied with the quality of skin lightening achieved? 6) How many days after the first application of the test product did you observe a lightening effect?

[7] = test system: Indian and Chinese skins; test: Skin tone (a*, b*) and general skin quality observation (Examples 5 and 6); format: in vivo, human; conditions: Chinese skin and especially Indian skin
Method: […]. The a* (rosy-red tone) and b* (yellow tone) components of the skin tone were monitored.
Over the 28-day period, the a* (rosy-red tone) component of Indian skin increased, and the b* (yellow tone) component of Indian and Chinese skins decreased. […] Before starting the study, all subjects' melanin index, L*a*b* and ITA value were measured at the tested site using Mexameter MX18 and Courage+Khazaka (CK) Colorimeter CL 400. Photos and instrument measurements were taken at the start of the testing (Day 0), during the testing (D2, D5, D7, D9, D12) and after the testing (D14, D21 and D28). […] Each subject applied 5 products on the left arm. Subjects wore an arm sleeve over part of the right arm for the occluded site, so as to provide 2 negative controls, one occluded from light and UV-radiation (right arm) and one covered under fabric (left arm) so as to understand the effect of melanogenesis even when no light is passing through. The tested areas were evaluated on their skin melanin index, L*a*b* and ITA after D2, D5, D7, D9, D12, D14, D21 and D28 of application using Mexameter MX 18 and CK Colorimeter CL400.
As part of the same experiment above, general skin quality effects were also observed.

[8] = B16 cultured melanocyte cells, 3 days incubation, melanin OD at 480 nm
[9] = Melanocyte, 72 h, B16 cultured melanocyte cells, 3 days incubation, melanin OD at 480 nm; read-out: IC50, melanogenesis inhibition
[10] = Melanocyte, 72 h; read-out: IC50, melanogenesis inhibition

For `CC1=CC(=O)[N-]S(=O)(=O)O1.[K+]` [Acesulphame K (ASK), Acesulphame K (Potassium Acesulphame)], the IC50 ([1]; Melanocyte, 72 h, read-out: IC50, melanogenesis inhibition) was 58 µg/mL.
With `CC(=O)Oc1ccccc1C(=O)O` [Acetylsalicylic Acid, Acetyl Salicylic Acid] the “IC50, melanogenesis inhibition” value [1, 8] was 262 µg/mL (≈ 1450 µM).
In the case of `O=C(O)c1cc(O)[nH]c(=O)c1` [Citrazinic Acid, Citrazinic acid], the “IC50, melanogenesis inhibition” value [1, 8] is reported as 77 µg/mL (≈ 496 µM) and the IC50 [1, 9] is reported as 59 to 262 µg/mL (≈ 380 to 1690 µM).
`O=C1O[C@H]([C@H](O)CO)C(O)=C1O` [Erythorbic Acid] gave an IC50 [1, 9] of 73 µg/mL (≈ 414 µM).
In the case of `CCc1occc(=O)c1O` [Ethyl Maltol], the “IC50, melanogenesis inhibition” value [1, 8] is reported as 59 µg/mL (≈ 421 µM), the IC50 [1, 9] is reported as 59 to 262 µg/mL (≈ 421 to 1870 µM) and the “concentrations resulting in cell toxicity” value ([2]; mouse) is reported as “greater than 100 μM”.
Molecule `Nc1nc2[nH]cnc2c(=O)[nH]1` [Guanine] has an IC50 [1, 10] of 56 µg/mL (≈ 371 µM).
In the case of `Nc1nc2c(ncn2[C@@H]2O[C@H](COP(=O)(O)O)[C@@H](O)[C@H]2O)c(=O)[nH]1` [Guanosine Monophosphate, Guanosine Mono- phosphate], the IC50 [1, 9] is reported as 70 µg/mL.
For `O=c1[nH]cnc2[nH]cnc12` [Hypoxanthine], the IC50 [1, 9] was 70 µg/mL (≈ 514 µM).
Molecule `O=c1[nH]c2ccccc2c(=O)o1` [Isatoic Anhydride] has an IC50 [1, 10] of 132 µg/mL (≈ 809 µM).
Work on `O=c1cc(CO)occ1O` [Kojic acid (Standard), Kojic acid, reference compound] yielded an IC50 [1, 9] of 51 µg/mL (≈ 359 µM).
With `Cc1occc(=O)c1O` [Maltol, 3-hydroxy-2-methyl-4H-pyran-4-one] the “inhibition of the growth of P. aeruginosa” value [3] was “completely inhibited”, the “cytotoxic activities on intact human skin” value [4] was “no real cytotoxic activities” and the IC50 [1, 9] was 65 µg/mL (≈ 515 µM). The “cytotoxic activities on B16 cells” value [2] was “no real cytotoxic activities”.
For `O=C1NC(=O)c2ccccc21` [Phthalimide], the IC50 [1, 9] was 89 µg/mL (≈ 605 µM).
With `O=C1NS(=O)(=O)c2ccccc21` [Saccharin, 2H-1lamda 6,2-benzothiazol-1,1,3-trione] the “cytotoxic activities on B16 cells” value [2] was “no real cytotoxic activities”.
In the case of `Cn1cnc2c1c(=O)[nH]c(=O)n2C` [Theobromine], the IC50 [1, 9] is reported as 37 µg/mL (≈ 205 µM).
In the case of `O=c1cc[nH]c(=O)[nH]1` [Uracil], the IC50 [1, 9] is reported as 143 µg/mL (≈ 1280 µM).
With `O=C1O[C@H]([C@@H](O)CO)C(O)=C1O[C@H]1O[C@H](CO)[C@@H](O)[C@H](O)[C@H]1O` [ascorbic acid-2-glucoside (AA2G), ascorbic acid-2-glucoside] the “viscosity of the cream” value [5] was 26,000 mPa·s.
For `NC(=O)c1cccnc1` [niacinamide], the “subjects who observed and reported lightening of their skin” value [6] was 82% and the “effects on a* and b* skin tone compared with the maltol/saccharin cream” value [7] was “diametrically opposite effects”.
For “Dehydroacetic Acid [Dehydroacetic Acid (DHAA)]”, the “IC50, melanogenesis inhibition” value [1] was 73 µg/mL.

— patent US11123279B2, “Cosmetic composition and the use thereof for regulating skin quality” (priority 2016, dated 2021)
